What was measured:
[1] = test system: BRD4 BD1; assay: In vitro binding affinity (TR-FRET), BRD4 BD1; set-up: species or system human; settings: from IC50 BD1 and BD2
[2] = molecular target: T1, BRD4 BD1 WT (Homo sapiens, UniProt O60885); assay: Thermal shift assay (TSA/DSF), BD1 WT; format: binding; settings: eight increasing concentrations
T1 construct: Constructs used for mutagenesis, including wild-type BD1 (BD1 WT), BD1 with an E151A mutation (BD1 E151A), and wild-type BD2 (BD2 WT); GST (cleaved yes); made in house
Description: The melting temperatures shifts (ΔTm) were measured and the ΔTm curves as a function of compound-to-protein ratios were generated (Fig 2B–2C). […] As an additional control, the Tm of WT BD1 and E151A mutant in the absence of compound was also measured by TSA.
Plasmid construction and subsequent protein expression and purification of BRD4 proteins were performed using OverExpress C43(DE3) bacterial competent cells (Lucigen) as described in our previous studies. In brief, 12 L of bacterial cultures grown to OD600 between 0.6-0.8 were induced at 37°C for 4 h by 1 mM isopropyl […] (IPTG). Bacterial sonication supernatant in the lysis buffer (500 mM NaCl, 20 mM Tris-HCl pH 7.9 at 4°C, 20% glycerol, 1 mM EDTA, 0.2 mM DTT, and protease inhibitors) was incubated with glutathione (GSH) agarose beads (GOLDBIO, G-250–100) overnight with rotation at 4°C. The protein-bound GSH beads were washed three times with the lysis buffer and digested with human rhinovirus 3C protease (HRV-P3C; Thermal Fisher 88946) at 4°C for 4 h, according to the manufacture’s procedure, to remove GST tag from BD1/2 proteins. Untagged BRD4-BD1 and -BD2 were separated from HRV-P3C via passing through a HiTrap Q HP anion exchange chromatography column (GE Healthcare, GE17-1154-01) and eluted by a salt gradient from 100 mM to 1 M NaCl. […]

[3] = test system: WT J-Lat cells (Clone […]); assay: RT-qPCR validation of differentially expressed genes, WT J-Lat cells; format: cell-based, human; settings: 5 μM, 24 h, normalized to GAPDH
Description: To validate the RNA-Seq results, RT-qPCR analysis was performed on a subset of differentially expressed genes (DEGs) (Fig 3E). Eight representative DEGs were selected based on statistical significance (adjusted p values) and their involvement in key pathways identified by GSEA, including lipid metabolism/cholesterol biosynthesis (HMGCS1, SQLE, DHCR7) and cytokine signaling (ITK and DUSP8). Relative gene expression levels were normalized to the housekeeping gene GAPDH. […] As an additional control, RT-qPCR was also performed on RNA isolated from BRD4-knockout (KO) J-Lat cells that received the same treatments. The generation and characterization of BRD4-KO J-Lat cells were described previously.
RT-qPCR was performed as previously reported.

[4] = test system: CDK9 binding to HIV 5′-LTR in J-Lat cells (10.6); assay: ChIP-qPCR of CDK9 binding to HIV 5'-LTR; format: cell-based, human; settings: PMA (50ng/ml) + compound 5 μM, 24 hours
[5] = In vivo toxicity study in ICR mice; set-up: key to Detail clinical observation during administration period (symptom number): 01. normal; 02. Cavity to observe; 03. Discolored skin; 04. Salivation; 05. Emesis; 06. Lacrimation; 07. ptosis; 08.Decreased respira tion; 09. Increased respiration; 10. anhelation; 11. Ataxia; 12. Loose stools; 13. Limb’s tremor; 14. Ey e; 15.Weakness; 16. Hyperreactivity; 17. Emaciation; 18. Whole body touch; 19. Cough; 20. At the injection site; 21. Alopecia genitalized; 22. convulsion; 23. Corna; 24. Death; key to Necropsy macroscopic (all organs examined): –: normal-; slight +; midrange ++; severe ++++; settings: for Detail clinical observation during administration period (symptom number): all 10 animals (5 F, 5 M), Day 1 (twice) to Day 7; for Necropsy macroscopic (all organs examined): all organs listed
Description: The acute toxicity studies were performed in both male and female ICR mice. The mice were divided into 3 groups (each group, n = 10, 5 males and 5 females). Group 1 was the vehicle group without ZL0580 treatment (po, 20% DMA + 20% Solutol HS15 + 60% HP-β-CD (20%, w/v)). Group 2, and group 3 mice were orally administrated with ZL0580 at doses of 100 mg/kg and 300 mg/kg [in 20% Dimethyl Acetamide (DMA) + 20% Solutol HS15 + 60% HP-β-CD (20%, w/v)], respectively. The body weights of all mice were weighed on day 1, 3, and 7 after treatments. The mean body weights of all mice in each group were calculated, and the standard curves were generated with the mean body weights of each group mice at different recorded time points. The food consumption masses of each group mice were recorded on day 1, 2, 3, 4, and 5 after treatments. The mean food consumption of all mice in each group was calculated, and the standard curves were generated with the mean food consumption of each group at different recorded time points.

[6] = test system: Tat recruitment to the HIV promoter in J-Lat cells (clone 10.6); set-up: method as in PMID 31329163; settings: cited from earlier work
[7] = ICR mice, 100 mg/kg or 300 mg/kg daily for 7 days
[8] = ICR mice, 100 mg/kg or 300 mg/kg, end of the study

For `O=C(Nc1ccc(C(F)(F)F)cc1)Nc1ccc(S(=O)(=O)N2CCC[C@H]2C(=O)Nc2ccccc2)cc1` [ZL0580], the “Selectivity (BRD4 BD1 vs BD2)” value [1] was “about 7 fold”, the “Effect on stability of WT BD1 (TSA)” value [2] was “dose-dependently increased the stability” and the “Expression of HMGCS1, SQLE, DHCR7, ASS1, ITK, DUSP8 relative to NC” value [3] was “upregulated”. For the same molecule, the “Expression of KLF10 and WDR52 relative to NC” value [3] was “downregulated”, the “Reduction of CDK9 binding relative to PMA alone” value [4] was ~ 3.8 fold and the “Detail clinical observation during administration period (symptom number)” value ([5]; Group 2, 100 mg/kg PO) was 01. The “Necropsy macroscopic (all organs examined)” value ([5]; Group 2, 100 mg/kg PO, all 10 animals) was “–”, the “Detail clinical observation during administration period (symptom number)” value ([5]; Group 3, 300 mg/kg PO) was 01 and the “Necropsy macroscopic (all organs examined)” value ([5]; Group 3, 300 mg/kg PO, females 801-805 shown) was “–”. The Tolerability in vivo ([5]; ICR mice, 100 mg/kg or 300 mg/kg PO daily for 7 days) was “well tolerated”, the “Changes in body weights” value [5, 7] was “little to no changes” and the “Changes in food consumption” value [5, 7] was “little to no changes”. For the same molecule, the “Necropsy and gross pathological examinations” value [5, 8] was “no abnormalities”, the Serum biochemistry [5, 8] was “no abnormalities” and the “Clinical signs of toxicity” value ([5]; ICR mice, 100 mg/kg or 300 mg/kg, throughout the study) was “No clinical signs of toxicity were observed”. The “Tat binding to the HIV promoter” value [6] was “decreased”.

Reference: publication PMC12880750, “Mechanistic insights and in vivo HIV suppression by the BRD4-targeting small molecule ZL0580” (PLOS Pathogens, 2026)
